Measurements as given in the supplement of paper PMC10307832.

Legend:
Assay in all cases: relative viability (nuclei count vs DMSO), 5 days (fraction); higher = more cells survive
[1] = test system: LK-2
Procedure, shortened: (§1)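 Five library-drug doses in √10 steps were combined with a fixed anchor-drug dose, or a single drug was given alone, by pin tool to lung cancer cell lines in 1536-well plates the day after seeding. Nuclei were stained and counted after 5 days. Relative viability is the nuclei count in treated wells over that in vehicle wells, taken as the median of duplicate plates.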

[2] = test system: 201T
Procedure, shortened: as §1

[3] = test system: PC-14
Procedure, shortened: as §1

[4] = test system: NCI-H2170
Procedure, shortened: as §1

[5] = test system: HARA
Procedure, shortened: as §1

[6] = test system: EKVX
Procedure, shortened: as §1

[7] = test system: NCI-H3122
Procedure, shortened: as §1

[8] = test system: BEN
Procedure, shortened: as §1

[9] = test system: COR-L23
Procedure, shortened: as §1

[10] = test system: NCI-H727
Procedure, shortened: as §1

[11] = test system: NCI-H2009
Procedure, shortened: as §1

[12] = test system: NCI-H441
Procedure, shortened: as §1

[13] = test system: CAL-12T
Procedure, shortened: as §1

[14] = test system: COR-L 105
Procedure, shortened: as §1

[15] = test system: SW 900
Procedure, shortened: as §1

[16] = test system: LU99A
Procedure, shortened: as §1

[17] = test system: NCI-H1437
Procedure, shortened: as §1

[18] = test system: HCC-366
Procedure, shortened: as §1

[19] = test system: ABC-1
Procedure, shortened: as §1

[20] = test system: NCI-H838
Procedure, shortened: as §1

[21] = test system: NCI-H661
Procedure, shortened: as §1

[22] = test system: NCI-H1666
Procedure, shortened: as §1

[23] = test system: NCI-H1650
Procedure, shortened: as §1

CC1(C)CCC(c2ccc(Cl)cc2)=C(CN2CCN(c3ccc(C(=O)NS(=O)(=O)c4ccc(N[C@H](CCN5CCOCC5)CSc5ccccc5)c(S(=O)(=O)C(F)(F)F)c4)cc3)CC2)C1 [Navitoclax] + Cc1nc(Nc2ncc(C(=O)Nc3c(C)cccc3Cl)s2)cc(N2CCN(CCO)CC2)n1 [Dasatinib] (partner 0.075 µM)
relative viability ([1]; first compound 0.005 µM): 0.319
relative viability ([1]; first compound 0.01581 µM): 0.368
relative viability ([1]; first compound 0.05 µM): 0.309
relative viability ([1]; first compound 0.1581 µM): 0.202
relative viability ([1]; first compound 0.5 µM): 0.37
relative viability ([2]; first compound 0.005 µM): 0.603
relative viability ([2]; first compound 0.01581 µM): 0.662
relative viability ([2]; first compound 0.05 µM): 0.587
relative viability ([2]; first compound 0.1581 µM): 0.592
relative viability ([2]; first compound 0.5 µM): 0.714
relative viability ([3]; first compound 0.005 µM): 0.255
relative viability ([3]; first compound 0.01581 µM): 0.317
relative viability ([3]; first compound 0.05 µM): 0.228
relative viability ([3]; first compound 0.1581 µM): 0.284
relative viability ([3]; first compound 0.5 µM): 0.215
relative viability ([4]; first compound 0.005 µM): 0.557
relative viability ([4]; first compound 0.01581 µM): 0.528
relative viability ([4]; first compound 0.05 µM): 0.397
relative viability ([4]; first compound 0.1581 µM): 0.595
relative viability ([4]; first compound 0.5 µM): 0.574
relative viability ([5]; first compound 0.005 µM): 0.308
relative viability ([5]; first compound 0.01581 µM): 0.277
relative viability ([5]; first compound 0.1581 µM): 0.29
relative viability ([5]; first compound 0.5 µM): 0.242
relative viability ([6]; first compound 0.005 µM): 0.607
relative viability ([6]; first compound 0.01581 µM): 0.583
relative viability ([6]; first compound 0.05 µM): 0.512
relative viability ([6]; first compound 0.1581 µM): 0.692
relative viability ([6]; first compound 0.5 µM): 0.598
relative viability ([7]; first compound 0.005 µM): 0.72
relative viability ([7]; first compound 0.01581 µM): 0.838
relative viability ([7]; first compound 0.05 µM): 0.904
relative viability ([7]; first compound 0.1581 µM): 0.821
relative viability ([7]; first compound 0.5 µM): 0.682
relative viability ([8]; first compound 0.005 µM): 0.301
relative viability ([8]; first compound 0.01581 µM): 0.312
relative viability ([8]; first compound 0.05 µM): 0.333
relative viability ([8]; first compound 0.1581 µM): 0.297
relative viability ([8]; first compound 0.5 µM): 0.0643
relative viability ([9]; first compound 0.005 µM): 0.509
relative viability ([9]; first compound 0.01581 µM): 0.595
relative viability ([9]; first compound 0.05 µM): 0.521
relative viability ([9]; first compound 0.1581 µM): 0.447
relative viability ([9]; first compound 0.5 µM): 0.556
relative viability ([10]; first compound 0.01581 µM): 0.364
relative viability ([10]; first compound 0.1581 µM): 0.365
relative viability ([10]; first compound 0.5 µM): 0.347
relative viability ([11]; first compound 0.005 µM): 0.232
relative viability ([11]; first compound 0.01581 µM): 0.383
relative viability ([11]; first compound 0.05 µM): 0.264
relative viability ([11]; first compound 0.1581 µM): 0.336
relative viability ([11]; first compound 0.5 µM): 0.319
relative viability ([12]; first compound 0.005 µM): 0.739
relative viability ([12]; first compound 0.01581 µM): 0.639
relative viability ([12]; first compound 0.05 µM): 0.549
relative viability ([12]; first compound 0.1581 µM): 0.632
relative viability ([12]; first compound 0.5 µM): 0.637
relative viability ([13]; first compound 0.005 µM): 0.433
relative viability ([13]; first compound 0.01581 µM): 0.6
relative viability ([13]; first compound 0.05 µM): 0.325
relative viability ([13]; first compound 0.1581 µM): 0.492
relative viability ([13]; first compound 0.5 µM): 0.506
relative viability ([14]; first compound 0.005 µM): 0.331
relative viability ([14]; first compound 0.01581 µM): 0.458
relative viability ([14]; first compound 0.05 µM): 0.331
relative viability ([14]; first compound 0.1581 µM): 0.342
relative viability ([14]; first compound 0.5 µM): 0.306
relative viability ([15]; first compound 0.005 µM): 0.504
relative viability ([15]; first compound 0.01581 µM): 0.537
relative viability ([15]; first compound 0.05 µM): 0.475
relative viability ([15]; first compound 0.1581 µM): 0.8
relative viability ([15]; first compound 0.5 µM): 0.42
relative viability ([16]; first compound 0.005 µM): 0.542
relative viability ([16]; first compound 0.01581 µM): 0.879
relative viability ([16]; first compound 0.05 µM): 0.418
relative viability ([16]; first compound 0.1581 µM): 0.618
relative viability ([16]; first compound 0.5 µM): 0.821
relative viability ([17]; first compound 0.005 µM): 0.377
relative viability ([17]; first compound 0.01581 µM): 0.513
relative viability ([17]; first compound 0.05 µM): 0.287
relative viability ([17]; first compound 0.1581 µM): 0.394
relative viability ([17]; first compound 0.5 µM): 0.41
relative viability ([18]; first compound 0.005 µM): 0.587
relative viability ([18]; first compound 0.01581 µM): 0.689
relative viability ([18]; first compound 0.1581 µM): 0.709
relative viability ([18]; first compound 0.5 µM): 0.646
relative viability ([19]; first compound 0.005 µM): 0.588
relative viability ([19]; first compound 0.01581 µM): 0.644
relative viability ([19]; first compound 0.05 µM): 0.49
relative viability ([19]; first compound 0.1581 µM): 0.555
relative viability ([19]; first compound 0.5 µM): 0.61
relative viability ([20]; first compound 0.005 µM): 0.267
relative viability ([20]; first compound 0.01581 µM): 0.334
relative viability ([20]; first compound 0.05 µM): 0.26
relative viability ([20]; first compound 0.1581 µM): 0.238
relative viability ([20]; first compound 0.5 µM): 0.36
relative viability ([21]; first compound 0.005 µM): 0.621
relative viability ([21]; first compound 0.01581 µM): 1.11
relative viability ([21]; first compound 0.05 µM): 0.901
relative viability ([21]; first compound 0.1581 µM): 0.933
relative viability ([21]; first compound 0.5 µM): 0.926
relative viability ([22]; first compound 0.005 µM): 0.647
relative viability ([22]; first compound 0.01581 µM): 0.853
relative viability ([22]; first compound 0.05 µM): 0.755
relative viability ([22]; first compound 0.1581 µM): 0.833
relative viability ([22]; first compound 0.5 µM): 0.766
relative viability ([23]; first compound 0.005 µM): 0.28
relative viability ([23]; first compound 0.01581 µM): 0.38
relative viability ([23]; first compound 0.05 µM): 0.314
relative viability ([23]; first compound 0.1581 µM): 0.277
relative viability ([23]; first compound 0.5 µM): 0.219
